In US20250197372A1 (priority 2020, published 2025):
Read-outs that look alike come from different tables or passages of the source.

Assays:
[1] = biological target: T1, recombinant alpha-glucosidase II (murine full-length glucosidase II, alpha and beta subunits, Glu 2) (Mus musculus, UniProt Q8BHN3); assay: Alpha-glucosidase II assay (4-methylumbelliferyl-alpha-D-pyranoside substrate, fluorescence); format: biochemical
T1 construct: made in house; host or cells: HEK-293T cells transduced with BacMam viruses (75% alpha, 25% beta); protein harvested from culture supernatant

[2] = biological target: T2, recombinant human GBA (beta-glucocerebrosidase) (Homo sapiens, UniProt P04062); assay: Beta-glucocerebrosidase (GBA, glucosylceramidase) assay (4-methylumbelliferyl-beta-D-pyranoside substrate, fluorescence); format: biochemical
T2 sequence (P04062 40-536): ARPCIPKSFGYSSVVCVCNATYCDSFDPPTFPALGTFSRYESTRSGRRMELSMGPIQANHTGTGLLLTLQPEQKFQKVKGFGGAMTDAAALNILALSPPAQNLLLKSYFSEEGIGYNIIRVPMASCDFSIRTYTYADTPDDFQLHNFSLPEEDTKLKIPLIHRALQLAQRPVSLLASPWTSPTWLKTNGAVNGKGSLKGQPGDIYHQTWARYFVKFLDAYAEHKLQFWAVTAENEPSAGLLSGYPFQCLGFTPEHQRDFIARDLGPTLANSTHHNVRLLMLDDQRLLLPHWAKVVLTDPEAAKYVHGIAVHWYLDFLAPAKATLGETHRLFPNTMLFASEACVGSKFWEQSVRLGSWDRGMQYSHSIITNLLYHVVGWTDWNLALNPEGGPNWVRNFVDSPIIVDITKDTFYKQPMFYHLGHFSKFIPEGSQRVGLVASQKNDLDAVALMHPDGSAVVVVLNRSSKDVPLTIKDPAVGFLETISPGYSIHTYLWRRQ
Description: Beta-glucocerebrosidase (GBA, also referred to glucosylceramidase): To analyze inhibitory effects of a test compound, commercially available recombinant human GBA was incubated with multiple dilutions of test compound for 60 minutes at 37° C. 4-methylumbelliferyl-beta-D-pyranoside was then introduced to the mixture as substrate. Following incubation for 60 minutes at 37° C., 1,4-methyllumbelliferone was generated, and the reaction was stopped with the stop solution (0.5 M glycine; 0.3 M NaOH, pH 10). 1,4-methyllumbelliferone was detected by fluorescence (excitation at 365 nm, emission at 440 nm). Relative fluorescence compared to untreated enzymatic activity and test compound concentration is then plotted as a function of percent inhibition. The IC50 was determined using a 4-PL curve fit as the measure of relative inhibitory activity of each test compound (see Table 3).

[3] = Glucosidase 2, read-out: Glu2 IC50

T1 sequence (O08795 15-521): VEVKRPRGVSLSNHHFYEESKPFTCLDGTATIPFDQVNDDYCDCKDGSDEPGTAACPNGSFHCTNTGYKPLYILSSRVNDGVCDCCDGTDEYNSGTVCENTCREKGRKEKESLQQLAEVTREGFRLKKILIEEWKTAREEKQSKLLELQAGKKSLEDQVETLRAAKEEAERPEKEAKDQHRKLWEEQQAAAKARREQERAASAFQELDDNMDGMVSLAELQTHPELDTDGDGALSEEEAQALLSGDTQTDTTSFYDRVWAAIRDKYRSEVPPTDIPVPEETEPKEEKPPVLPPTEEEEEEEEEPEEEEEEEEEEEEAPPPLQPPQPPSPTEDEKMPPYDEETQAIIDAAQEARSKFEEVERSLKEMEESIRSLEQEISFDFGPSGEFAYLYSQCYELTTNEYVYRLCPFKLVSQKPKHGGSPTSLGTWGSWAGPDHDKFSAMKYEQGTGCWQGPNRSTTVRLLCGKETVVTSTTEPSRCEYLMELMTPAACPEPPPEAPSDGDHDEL
T1 sequence (Q8BHN3 33-944): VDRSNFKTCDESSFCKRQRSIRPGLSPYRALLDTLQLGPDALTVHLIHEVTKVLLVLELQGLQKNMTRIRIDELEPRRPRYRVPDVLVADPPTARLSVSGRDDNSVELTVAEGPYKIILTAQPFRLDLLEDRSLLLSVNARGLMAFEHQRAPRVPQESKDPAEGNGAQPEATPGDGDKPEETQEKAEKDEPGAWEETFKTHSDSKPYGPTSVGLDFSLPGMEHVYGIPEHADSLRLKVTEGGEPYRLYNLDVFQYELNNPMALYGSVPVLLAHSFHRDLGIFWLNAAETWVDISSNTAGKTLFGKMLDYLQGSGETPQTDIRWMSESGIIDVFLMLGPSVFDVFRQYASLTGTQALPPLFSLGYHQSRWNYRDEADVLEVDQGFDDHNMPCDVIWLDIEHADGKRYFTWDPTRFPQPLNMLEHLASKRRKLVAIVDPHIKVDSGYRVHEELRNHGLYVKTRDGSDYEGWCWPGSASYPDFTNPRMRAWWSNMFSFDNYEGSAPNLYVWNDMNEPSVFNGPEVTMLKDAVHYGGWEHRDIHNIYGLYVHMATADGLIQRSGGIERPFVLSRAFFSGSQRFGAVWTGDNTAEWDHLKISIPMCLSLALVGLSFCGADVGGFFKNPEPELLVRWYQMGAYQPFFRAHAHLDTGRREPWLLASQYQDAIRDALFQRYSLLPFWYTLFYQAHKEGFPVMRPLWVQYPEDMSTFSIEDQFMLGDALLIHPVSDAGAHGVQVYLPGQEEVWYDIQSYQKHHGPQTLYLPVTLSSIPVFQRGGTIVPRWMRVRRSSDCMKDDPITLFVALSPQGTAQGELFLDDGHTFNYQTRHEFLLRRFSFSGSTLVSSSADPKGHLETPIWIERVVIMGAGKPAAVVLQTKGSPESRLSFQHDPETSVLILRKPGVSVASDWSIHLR

## CS(=O)(=O)c1cc(NCCCCCCN2C[C@H](O)[C@@H](O)[C@H](O)[C@H]2CO)cc(-c2ncccn2)c1 [Compound 1128, (2R,3R,4R,5S)-2-(hydroxymethyl)-1-(6-{[3-methanesulfonyl-5-(pyrimidin-2-yl)phenyl]amino}hexyl)piperidine-3,4,5-triol]
[1]; [3]
  IC50: 0.001 µM
[2]
  IC50: 5.2 µM

## O=Cc1cc(NCCCCCCN2C[C@H](O)[C@@H](O)[C@H](O)[C@H]2CO)cc(-c2ncccn2)c1 [Compound 1129, 3-(pyrimidin-2-yl)-5-({6-[(2R,3R,4R,5S)-3,4,5-trihydroxy-2-(hydroxymethyl)piperidin-1-yl]hexyl}amino)benzaldehyde]
[1]; [3]
  IC50: 0.007 µM
[2]
  IC50: 2.73 µM

## N#Cc1cc(NCCCCCCN2C[C@H](O)[C@@H](O)[C@H](O)[C@H]2CO)cc(-c2ncccn2)c1 [Compound 1130, 3-(pyrimidin-2-yl)-5-({6-[(2R,3R,4R,5S)-3,4,5-trihydroxy-2-(hydroxymethyl)piperidin-1-yl]hexyl}amino)benzonitrile]
[1]; [3]
  IC50: 0.006 µM
[2]
  IC50: 0.974 µM

## OC[C@@H]1[C@@H](O)[C@H](O)[C@@H](O)CN1CCCCCCNc1cc(-c2ncccn2)cc(C(F)(F)F)c1 [Compound 1131, (2R,3R,4R,5S)-2-(hydroxymethyl)-1-(6-{[3-(pyrimidin-2-yl)-5-(trifluoromethyl)phenyl]amino}hexyl)piperidine-3,4,5-triol]
[1]; [3]
  IC50: 0.003 µM
[2]
  IC50: 0.308 µM

## COc1cc(C#N)cc(NCCc2ccc(CCN3C[C@H](O)[C@@H](O)[C@H](O)[C@H]3CO)cc2)c1 [Compound 1133, 3-methoxy-5-{[2-(4-{2-[(2R,3R,4R,5S)-3,4,5-trihydroxy-2-(hydroxymethyl)piperidin-1-yl]ethyl}phenyl)ethyl]amino}benzonitrile]
[1]; [3]
  IC50: 0.005 µM
[2]
  IC50: 4.5 µM

## N#Cc1cc(Cl)cc(NCCc2ccc(CCN3C[C@H](O)[C@@H](O)[C@H](O)[C@H]3CO)cc2)c1 [Compound 1134, 3-chloro-5-{[2-(4-{2-[(2R,3R,4R,5S)-3,4,5-trihydroxy-2-(hydroxymethyl)piperidin-1-yl]ethyl}phenyl)ethyl]amino}benzonitrile]
[1]; [3]
  IC50: 0.001 µM
[2]
  IC50: 2.36 µM

## O=[N+]([O-])c1cc(C2CC2)ccc1NCCCCCCN1C[C@H](O)[C@@H](O)[C@H](O)[C@H]1CO [Compound 1136, (2R,3R,4R,5S)-1-{6-[(4-cyclopropyl-2-nitrophenyl)amino]hexyl}-2-(hydroxymethyl)piperidine-3,4,5-triol]
[1]; [3]
  IC50: 0.001 µM
[2]
  IC50: 0.037 µM

## O=[N+]([O-])c1cc(-c2ccccc2)ccc1NCCCCCCN1C[C@H](O)[C@@H](O)[C@H](O)[C@H]1CO [Compound 1138, (2R,3R,4R,5S)-2-(hydroxymethyl)-1-[6-({3-nitro-[1,1′-biphenyl]-4-yl}amino)hexyl]piperidine-3,4,5-triol]
[1]
  IC50: 0.002 µM
[2]
  IC50: 0.018 µM

## [N-]=[N+]=Nc1ccc(NCCc2cc(Br)cc(CCN3C[C@H](O)[C@@H](O)[C@H](O)[C@H]3CO)c2)c([N+](=O)[O-])c1 [Compound 1140, (2R,3R,4R,5S)-1-[2-(3-{2-[(4-azido-2-nitrophenyl)amino]ethyl}-5-bromophenyl)ethyl]-2-(hydroxymethyl)piperidine-3,4,5-triol]
[1]; [3]
  IC50: 0.045 µM
[2]
  IC50: 0.674 µM

## COc1cc(CC2CCOC2)cc(NCCCCCCN2C[C@H](O)[C@@H](O)[C@H](O)[C@H]2CO)c1 (stereo partly drawn) [Compound 1141, (2R,3R,4R,5S)-2-(hydroxymethyl)-1-[6-({3-methoxy-5-[(oxolan-3-yl)methyl]phenyl}amino)hexyl]piperidine-3,4,5-triol]
[1]; [3]
  IC50: 0.139 µM
[2]
  IC50: 8.06 µM

## [N-]=[N+]=Nc1ccc(NCCNc2cc(Cl)cc(CCN3C[C@H](O)[C@@H](O)[C@H](O)[C@H]3CO)c2)c([N+](=O)[O-])c1 [Compound 1143, (2R,3R,4R,5S)-1-{2-[3-({2-[(4-azido-2-nitrophenyl)amino]ethyl}amino)-5-chlorophenyl]ethyl}-2-(hydroxymethyl)piperidine-3,4,5-triol]
[1]; [3]
  IC50: 0.002 µM
[2]
  IC50: 0.404 µM

## COc1cc(Cc2ccccc2)cc(NCCCCCCN2C[C@H](O)[C@@H](O)[C@H](O)[C@H]2CO)c1 [Compound 1145, (2R,3R,4R,5S)-1-{6-[(3-benzyl-5-methoxyphenyl)amino]hexyl}-2-(hydroxymethyl)piperidine-3,4,5-triol]
[1]; [3]
  IC50: < 0.001 µM
[2]
  IC50: 0.458 µM

## COc1cc(NCCCCCCN2C[C@H](O)[C@@H](O)[C@H](O)[C@H]2CO)cc(C2CCCO2)c1 (stereo partly drawn) [Compound 1146, (2R,3R,4R,5S)-2-(hydroxymethyl)-1-(6-{[3-methoxy-5-(oxolan-2-yl)phenyl]amino}hexyl)piperidine-3,4,5-triol]
[1]; [3]
  IC50: 0.015 µM
[2]
  IC50: 2.17 µM

## COc1cc(NCCCCCCN2C[C@H](O)[C@@H](O)[C@H](O)[C@H]2CO)cc(C2=CCCO2)c1 [Compound 1147, (2R,3R,4R,5S)-1-(6-{[3-(4,5-dihydrofuran-2-yl)-5-methoxyphenyl]amino}hexyl)-2-(hydroxymethyl)piperidine-3,4,5-triol]
[1]; [3]
  IC50: 0.034 µM
[2]
  IC50: 1.98 µM

## COc1cc(NCCCCCCN2C[C@H](O)[C@@H](O)[C@H](O)[C@H]2CO)cc(C2CCCCC2)c1 [Compound 1148, (2R,3R,4R,5S)-1-{6-[(3-cyclohexyl-5-methoxyphenyl)amino]hexyl}-2-(hydroxymethyl)piperidine-3,4,5-triol]
[1]; [3]
  IC50: < 0.001 µM
[2]
  IC50: 0.002 µM

## COc1cc(NCCCCCCN2C[C@H](O)[C@@H](O)[C@H](O)[C@H]2CO)cc(C2=CCCCC2)c1 [Compound 1149, (2R,3R,4R,5S)-1-(6-{[3-(cyclohex-1-en-1-yl)-5-methoxy-phenyl]amino}hexyl)-2-(hydroxymethyl)piperidine-3,4,5-triol]
[1]; [3]
  IC50: < 0.001 µM
[2]
  IC50: 0.056 µM

## COc1cc(NCCCCCCN2C[C@H](O)[C@@H](O)[C@H](O)[C@H]2CO)cc(-c2ccccc2)c1 [Compound 1150, (2R,3R,4R,5S)-2-(hydroxymethyl)-1-[6-({5-methoxy-[1,1′-biphenyl]-3-yl}amino)hexyl]piperidine-3,4,5-triol]
[1]; [3]
  IC50: < 0.001 µM
[2]
  IC50: 0.193 µM

## CC(C)(C)c1cc(NCCCCCCN2C[C@H](O)[C@@H](O)[C@H](O)[C@H]2CO)cc(-c2ncccn2)c1 [Compound 1151, (2R,3R,4R,5S)-1-(6-{[3-tert-butyl-5-(pyrimidin-2-yl)phenyl]amino}hexyl)-2-(hydroxymethyl)piperidine-3,4,5-triol]
[1]; [3]
  IC50: < 0.001 µM
[2]
  IC50: 0.299 µM

## COc1cc(NCCc2ccc(CCN3C[C@H](O)[C@@H](O)[C@H](O)[C@H]3CO)cc2)cc(-c2ccco2)c1 [Compound 1153, (2R,3R,4R,5S)-1-{2-[4-(2-{[3-(furan-2-yl)-5-methoxy-phenyl]amino}ethyl)phenyl]ethyl}-2-(hydroxymethyl)piperidine-3,4,5-triol]
[1]; [3]
  IC50: 0.544 µM
[2]
  IC50: 1.09 µM

## COc1cc(NCCc2ccc(CCN3C[C@H](O)[C@@H](O)[C@H](O)[C@H]3CO)cc2)cc(C2=CCOCC2)c1 [Compound 1154, (2R,3R,4R,5S)-1-{2-[4-(2-{[3-(3,6-dihydro-2H-pyran-4-yl)-5-methoxyphenyl]amino}ethyl)phenyl]ethyl}-2-(hydroxymethyl)piperidine-3,4,5-triol]
[1]; [3]
  IC50: 0.002 µM
[2]
  IC50: 1.7 µM

## COc1cc(NCCc2ccc(CCN3C[C@H](O)[C@@H](O)[C@H](O)[C@H]3CO)cc2)cc(C2=COCCO2)c1 [Compound 1155, (2R,3R,4R,5S)-1-{2-[4-(2-{[3-(5,6-dihydro-1,4-dioxin-2-yl)-5-methoxyphenyl]amino}ethyl)phenyl]ethyl}-2-(hydroxymethyl)piperidine-3,4,5-triol]
[1]; [3]
  IC50: < 0.001 µM
[2]
  IC50: 3.54 µM

## COc1cc(NCCc2ccc(CCN3C[C@H](O)[C@@H](O)[C@H](O)[C@H]3CO)cc2)cc(-c2ncccn2)c1 [Compound 1156, (2R,3R,4R,5S)-2-(hydroxymethyl)-1-{2-[4-(2-{[3-methoxy-5-(pyrimidin-2-yl)phenyl]amino}ethyl)phenyl]ethyl}piperidine-3,4,5-triol]
[1]; [3]
  IC50: 0.118 µM
[2]
  IC50: 7.13 µM

## COc1cc(NCCc2ccc(CCN3C[C@H](O)[C@@H](O)[C@H](O)[C@H]3CO)cc2)cc(-c2cccnn2)c1 [Compound 1157, (2R,3R,4R,5S)-2-(hydroxymethyl)-1-{2-[4-(2-{[3-methoxy-5-(pyridazin-3-yl)phenyl]amino}ethyl)phenyl]ethyl}piperidine-3,4,5-triol]
[1]; [3]
  IC50: 0.004 µM
[2]
  IC50: 4.59 µM

## OC[C@@H]1[C@@H](O)[C@H](O)[C@@H](O)CN1CCc1ccc(CCNc2cc(Cl)cc(-c3ccco3)c2)cc1 [Compound 1159, (2R,3R,4R,5S)-1-{2-[4-(2-{[3-chloro-5-(furan-2-yl)phenyl]amino}ethyl)phenyl]ethyl}-2-(hydroxymethyl)piperidine-3,4,5-triol]
[1]; [3]
  IC50: 0.091 µM
[2]
  IC50: 1.05 µM
